Where two headings read alike, the source gives them in different places.
What was measured:
[1] = molecular target: kappa opioid receptors (KOR) (Homo sapiens, UniProt P41145); assay: PDSP radioligand binding at KOR; conditions: for inhibition at 10 µM: 1.5 h
Description: Opioid receptors are a family of inhibitory G-coupled protein receptors where opioids act as the ligand. The kappa opioid receptors (KOR), µ and δ opioid receptors (MOR and DOR), and nociception opioid receptor (NOP) fall under the family of opioids receptors. It has been reported that oxadiazole imidazodiazepines can mediate analgesic and anti-inflammatory properties mediated also by the κ opioid receptor (KOR). The binding at KOR is usually silent. The affinities of the test compounds for KOR, DOR, and MOR were determined using radioligand binding assays at a screening concentration of 10,000 nM in collaboration with the National Institute of Mental Health’s Psychoactive Drug Screening Program (PDSP), as mentioned before. Concentration-dependent experiments were conducted to determine Ki values for the compounds that exceeded more than 50% radioligand displacement in primary binding assays.
(§1) The NIMH PDSP assay protocol book [https://kidbdev.med.unc.edu/databases/PDSP%20Protocols%20II%202013-03-28.pdf accessed on 23 April 2023]. describes the protocols for primary and secondary radio-ligand binding assays. These assays were carried out in a final volume of 125 µL per well in the appropriate binding buffer.
(§2) The binding of a ligand to a receptor, ion channel, or transporter was determined in the […] of 10 µM of the appropriate reference compound. […] Plates were incubated in the dark for 90 min at rt, and the reactions were stopped by vacuum filtration onto 0.3% polyethyleneimine (PEI) soaked 96-well filter mats using a 96-well Filtermateharvester. This was followed by three washes with cold PBS buffer. Radioactivity was then counted on a Microbeta counter. Nonlinear regression was used to analyze the data with N = 6 replicates.

5-HT2C = molecular target: T1, 5-HT2C (Homo sapiens, UniProt P28335); assay: PDSP primary binding 5-HT2C; conditions: 1.5 h; primary binding, 10,000 nM; last figure of the line = mean of the 4 before it; read-out: 5-HT2C, PDSP raw data, mean
T1 construct: purchased NIMH Psychoactive Drug Screening Program (PDSP)
T1 sequence (P28335 33-458): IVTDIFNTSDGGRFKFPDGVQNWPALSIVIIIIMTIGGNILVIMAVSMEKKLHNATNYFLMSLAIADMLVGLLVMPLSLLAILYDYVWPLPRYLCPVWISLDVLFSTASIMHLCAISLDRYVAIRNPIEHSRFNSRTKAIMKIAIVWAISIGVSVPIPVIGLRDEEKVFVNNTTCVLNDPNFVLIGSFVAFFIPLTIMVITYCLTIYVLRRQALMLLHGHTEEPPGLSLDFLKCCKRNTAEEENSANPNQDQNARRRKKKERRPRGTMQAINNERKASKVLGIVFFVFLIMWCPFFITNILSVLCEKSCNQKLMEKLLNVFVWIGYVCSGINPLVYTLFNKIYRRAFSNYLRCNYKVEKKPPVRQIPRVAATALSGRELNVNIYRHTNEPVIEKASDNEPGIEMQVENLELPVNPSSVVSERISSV
Protocol: (§3) To determine if any off-target receptor-binding effects are present, all the novel ligands were sent to the National Institute of Mental Health (NIMH), Psychoactive Drug Screening Program (PDSP). The ligands were screened over a panel of 47 receptors, ion channels, and transporters to determine any other possible interactions with […]. The hERG-binding was also determined. […] No binding of the test compounds to calcium channels was observed. […] It is necessary to screen the compounds for hERG-binding during the early process of drug discovery. The unintentional binding of many drugs to hERG can cause blockade of hERG K+ channels in the heart, which can cause many side effects including cardiac arrhythmias and sudden death. […] All of the α5 imidazodiazepines were tested for hERG-binding.
as §1, §2

5-HT6 = molecular target: T2, 5-HT6 (Homo sapiens, UniProt P50406); assay: PDSP primary binding 5-HT6; conditions: 1.5 h; primary binding, 10,000 nM; last figure of the line = mean of the 4 before it; read-out: 5-HT6, PDSP raw data, mean
T2 construct: purchased NIMH Psychoactive Drug Screening Program (PDSP)
T2 sequence (P50406 whole entry): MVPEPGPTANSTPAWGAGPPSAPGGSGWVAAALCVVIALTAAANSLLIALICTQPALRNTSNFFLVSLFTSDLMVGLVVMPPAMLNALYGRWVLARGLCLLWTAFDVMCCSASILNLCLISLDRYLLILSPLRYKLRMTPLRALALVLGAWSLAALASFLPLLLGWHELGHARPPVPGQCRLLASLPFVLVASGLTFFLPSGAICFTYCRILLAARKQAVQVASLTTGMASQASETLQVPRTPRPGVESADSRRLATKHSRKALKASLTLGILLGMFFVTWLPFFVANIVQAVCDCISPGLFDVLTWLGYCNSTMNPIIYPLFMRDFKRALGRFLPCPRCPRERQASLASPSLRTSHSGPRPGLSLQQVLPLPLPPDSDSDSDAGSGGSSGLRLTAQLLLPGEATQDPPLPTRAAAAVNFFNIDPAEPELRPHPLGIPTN
Protocol: as §3, §1, §2

Beta1 = molecular target: T3, Beta1 (Homo sapiens, UniProt P08588); assay: PDSP primary binding Beta1; conditions: 1.5 h; primary binding, 10,000 nM; last figure of the line = mean of the 4 before it; read-out: Beta1, PDSP raw data, mean
T3 construct: purchased NIMH Psychoactive Drug Screening Program (PDSP)
T3 sequence (P08588 whole entry): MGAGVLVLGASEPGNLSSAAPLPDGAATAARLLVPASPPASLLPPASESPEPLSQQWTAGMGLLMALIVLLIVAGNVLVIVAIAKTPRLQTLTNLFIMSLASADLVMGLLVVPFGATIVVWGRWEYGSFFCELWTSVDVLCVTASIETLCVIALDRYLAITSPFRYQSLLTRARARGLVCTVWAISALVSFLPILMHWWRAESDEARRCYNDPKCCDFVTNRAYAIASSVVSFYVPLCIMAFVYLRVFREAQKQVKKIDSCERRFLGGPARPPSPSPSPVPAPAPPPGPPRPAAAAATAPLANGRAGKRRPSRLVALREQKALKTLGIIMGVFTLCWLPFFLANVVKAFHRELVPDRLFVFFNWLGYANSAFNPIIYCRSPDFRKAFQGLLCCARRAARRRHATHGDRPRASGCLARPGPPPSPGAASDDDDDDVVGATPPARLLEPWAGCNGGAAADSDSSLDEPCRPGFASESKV
Protocol: as §3, §1, §2

D5 = molecular target: T4, D5 (Homo sapiens, UniProt P21918); assay: PDSP primary binding D5; conditions: 1.5 h; primary binding, 10,000 nM; last figure of the line = mean of the 4 before it; read-out: D5, PDSP raw data, mean
T4 construct: purchased NIMH Psychoactive Drug Screening Program (PDSP)
T4 sequence (P21918 whole entry): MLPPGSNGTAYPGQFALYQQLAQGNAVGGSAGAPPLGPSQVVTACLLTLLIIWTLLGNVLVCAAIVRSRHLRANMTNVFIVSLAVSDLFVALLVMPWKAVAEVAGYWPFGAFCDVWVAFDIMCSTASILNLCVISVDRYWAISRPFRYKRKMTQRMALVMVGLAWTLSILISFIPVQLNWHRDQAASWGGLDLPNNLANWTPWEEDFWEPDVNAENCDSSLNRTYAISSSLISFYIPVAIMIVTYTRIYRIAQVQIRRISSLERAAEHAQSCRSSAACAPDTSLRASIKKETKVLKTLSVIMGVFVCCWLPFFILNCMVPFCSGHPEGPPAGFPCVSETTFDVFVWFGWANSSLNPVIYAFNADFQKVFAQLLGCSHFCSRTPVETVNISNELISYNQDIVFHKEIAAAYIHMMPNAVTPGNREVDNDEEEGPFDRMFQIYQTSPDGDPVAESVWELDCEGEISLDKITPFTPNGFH
Protocol: as §3, §1, §2

H1 = molecular target: T5, H1 (Homo sapiens, UniProt P35367); assay: PDSP primary binding H1; conditions: primary binding, 10,000 nM; last figure of the line = mean of the 4 before it; read-out: H1, PDSP raw data, mean
T5 construct: purchased NIMH Psychoactive Drug Screening Program (PDSP)
T5 sequence (P35367 whole entry): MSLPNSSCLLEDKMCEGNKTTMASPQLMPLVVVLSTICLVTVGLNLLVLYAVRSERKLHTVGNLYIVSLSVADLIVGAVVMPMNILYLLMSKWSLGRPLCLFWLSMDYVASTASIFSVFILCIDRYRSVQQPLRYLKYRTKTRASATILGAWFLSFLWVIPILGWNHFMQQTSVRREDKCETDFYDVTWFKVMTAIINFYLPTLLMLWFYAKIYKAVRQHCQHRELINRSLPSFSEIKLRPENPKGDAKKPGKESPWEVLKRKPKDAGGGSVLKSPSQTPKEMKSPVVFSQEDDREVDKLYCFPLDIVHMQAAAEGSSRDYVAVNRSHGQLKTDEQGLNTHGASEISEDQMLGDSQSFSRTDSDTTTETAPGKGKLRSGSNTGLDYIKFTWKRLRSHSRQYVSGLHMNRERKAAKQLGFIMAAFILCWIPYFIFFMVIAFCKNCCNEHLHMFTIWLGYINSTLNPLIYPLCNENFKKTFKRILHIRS
Protocol: as §3, §1, §2

M2 = molecular target: T6, M2 (Homo sapiens, UniProt P08172); assay: PDSP primary binding M2; conditions: primary binding, 10,000 nM; last figure of the line = mean of the 4 before it; read-out: M2, PDSP raw data, mean
T6 construct: purchased NIMH Psychoactive Drug Screening Program (PDSP)
T6 sequence (P08172 1-466): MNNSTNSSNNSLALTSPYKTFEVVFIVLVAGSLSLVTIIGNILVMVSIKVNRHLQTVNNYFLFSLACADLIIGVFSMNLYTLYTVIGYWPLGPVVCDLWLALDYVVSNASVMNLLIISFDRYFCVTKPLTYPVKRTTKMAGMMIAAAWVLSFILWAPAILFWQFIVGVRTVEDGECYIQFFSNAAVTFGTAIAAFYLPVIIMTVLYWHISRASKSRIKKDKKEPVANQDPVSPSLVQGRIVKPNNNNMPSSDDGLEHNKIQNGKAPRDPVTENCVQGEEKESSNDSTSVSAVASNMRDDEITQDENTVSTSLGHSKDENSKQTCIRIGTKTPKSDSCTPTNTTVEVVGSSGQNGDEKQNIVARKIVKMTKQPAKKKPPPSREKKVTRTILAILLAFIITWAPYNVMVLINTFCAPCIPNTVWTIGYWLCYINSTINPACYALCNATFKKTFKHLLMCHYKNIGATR
Protocol: as §3, §1, §2

AMPA = assay: PDSP primary binding AMPA; conditions: primary binding, 10,000 nM; last figure of the line = mean of the 4 before it
Protocol: as §3, §1, §2

Kainate (Rat Brain) = assay: PDSP primary binding Kainate (Rat Brain); conditions: primary binding, 10,000 nM; last figure of the line = mean of the 4 before it
Protocol: as §3, §1, §2

Alpha3Beta2 = molecular target: T7, Alpha3Beta2 (Rattus norvegicus, UniProt P04757+P12390); assay: PDSP primary binding Alpha3Beta2; conditions: primary binding, 10,000 nM; last figure of the line = mean of the 4 before it; read-out: Alpha3Beta2, PDSP raw data, mean
T7 construct: purchased NIMH Psychoactive Drug Screening Program (PDSP)
T7 sequence (P04757 26-499): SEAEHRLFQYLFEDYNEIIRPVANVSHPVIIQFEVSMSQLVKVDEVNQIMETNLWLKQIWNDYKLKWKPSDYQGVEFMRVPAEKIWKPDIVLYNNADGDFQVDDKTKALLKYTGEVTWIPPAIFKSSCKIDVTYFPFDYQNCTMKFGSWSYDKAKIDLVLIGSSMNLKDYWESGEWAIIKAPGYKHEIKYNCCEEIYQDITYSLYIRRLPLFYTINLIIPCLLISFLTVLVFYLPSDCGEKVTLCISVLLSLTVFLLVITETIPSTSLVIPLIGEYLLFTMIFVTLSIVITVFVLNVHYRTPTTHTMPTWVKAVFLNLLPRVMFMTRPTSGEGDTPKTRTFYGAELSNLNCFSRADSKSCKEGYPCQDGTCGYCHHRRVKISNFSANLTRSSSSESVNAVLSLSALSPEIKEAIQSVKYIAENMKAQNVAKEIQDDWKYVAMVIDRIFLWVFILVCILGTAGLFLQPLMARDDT
T7 sequence (P12390 25-500): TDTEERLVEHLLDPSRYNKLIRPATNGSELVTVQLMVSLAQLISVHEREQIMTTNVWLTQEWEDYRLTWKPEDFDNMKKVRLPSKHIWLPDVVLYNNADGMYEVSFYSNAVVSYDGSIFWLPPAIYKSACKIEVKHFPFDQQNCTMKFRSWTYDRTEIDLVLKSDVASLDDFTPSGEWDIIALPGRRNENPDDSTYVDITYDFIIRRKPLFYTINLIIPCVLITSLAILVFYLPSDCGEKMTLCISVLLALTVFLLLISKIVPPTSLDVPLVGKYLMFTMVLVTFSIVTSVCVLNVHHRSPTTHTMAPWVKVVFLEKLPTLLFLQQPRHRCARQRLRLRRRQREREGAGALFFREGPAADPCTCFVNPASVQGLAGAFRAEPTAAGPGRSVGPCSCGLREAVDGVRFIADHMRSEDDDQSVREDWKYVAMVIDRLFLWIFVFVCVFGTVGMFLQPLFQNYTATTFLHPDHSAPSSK
Protocol: as §3, §1, §2

Alpha7 = assay: PDSP primary binding Alpha7; conditions: primary binding, 10,000 nM; last figure of the line = mean of the 4 before it
Protocol: as §3, §1, §2

[2] = at 10,000 nM, N = 5, [3H]-U69593 0.83 nM, read-out: Primary Binding %KOR
[3] = primary binding, 10,000 nM, last figure of the line = mean of the 4 before it, read-out: KOR, PDSP raw data, mean

Chain of kappa opioid receptors (KOR) (P41145 whole entry): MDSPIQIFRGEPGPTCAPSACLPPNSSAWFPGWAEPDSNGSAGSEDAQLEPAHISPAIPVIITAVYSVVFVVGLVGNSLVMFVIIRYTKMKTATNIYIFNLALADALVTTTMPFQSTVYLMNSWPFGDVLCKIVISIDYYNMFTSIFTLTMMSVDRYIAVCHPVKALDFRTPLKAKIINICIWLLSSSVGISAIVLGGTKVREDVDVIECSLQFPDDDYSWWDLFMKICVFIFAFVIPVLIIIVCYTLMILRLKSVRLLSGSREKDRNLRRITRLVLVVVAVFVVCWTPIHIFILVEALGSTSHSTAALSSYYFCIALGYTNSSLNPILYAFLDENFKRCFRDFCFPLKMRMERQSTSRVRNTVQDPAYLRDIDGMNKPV

SMILES	Ki [1]	inhibition at 10 µM [1, 2]	inhibition at 10 µM [1, 3]	inhibition at 10 µM (5-HT2C)	inhibition at 10 µM (5-HT6)	inhibition at 10 µM (Beta1)	inhibition at 10 µM (D5)	inhibition at 10 µM (H1)	inhibition at 10 µM (M2)	AMPA, PDSP raw data, mean (AMPA)	Kainate (Rat Brain), PDSP raw data, mean (Kainate (Rat Brain))	inhibition at 10 µM (Alpha3Beta2)	Alpha7, PDSP raw data, mean (Alpha7)
C#Cc1ccc2c(c1)C(c1ccccc1F)=N[C@H](C)c1c(C(=S)N(C)C)ncn1-2 [Compound 33, (R)-8-Ethynyl-6-(2′-fluorophenyl)-N,N,4-trimethyl-4H-benzo[f]imidazo[1,5-a][1,4]diazepine-3-carbothioamide]	400 ± 82 nM	53.6 ± 7.24%	53.6%	18%	24.6%	-15.8%	1.22%	-10.4%	15.4%	7.77%	3.43%	2.14%	-18.33%
C#Cc1ccc2c(c1)C(c1ccccc1Cl)=N[C@H](C)c1c(C(=O)NC)ncn1-2 [Compound 21, (R)-6-(2′-Chlorophenyl)-8-ethynyl-N,4-dimethyl-4H-benzo[f]imidazo[1,5-a][1,4]diazepine-3-carboxamide]	660 ± 159 nM	69.6 ± 6.01%	69.6%	-14.2%	-8.24%	13.1%	12.2%	-9.7%	0.22%	-31.95%	-4.58%	3.21%	-10.85%
CCc1noc(-c2ncn3c2[C@@H](C)N=C(c2ccccc2F)c2cc(C4CC4)ccc2-3)n1 [Compound 46, (R)-5-(8-Cyclopropyl-6-(2′-fluorophenyl)-4-methyl-4H-benzo[f]imidazo[1,5-a][1,4]diazepin-3-yl)-3-ethyl-1,2,4-oxadiazole]			91.3%	3.53%	71.5%	-26.4%	51.2%	33.7%	5.73%	0.81%	38.21%	5.55%	4.57%
CC(C)c1noc(-c2ncn3c2[C@@H](C)N=C(c2ccccc2F)c2cc(Cl)ccc2-3)n1 [Compound 37, (R)-5-(8-Chloro-6-(2′-fluorophenyl)-4-methyl-4H-benzo[f]imidazo[1,5-a][1,4]diazepin-3-yl)-3-isopropyl-1,2,4-oxadiazole]	46.3 ± 4.93 nM	99.2 ± 1.75%	99.2%	17.5%	-1.65%	8.14%	17.1%	59%	-19.3%	20.59%	35.39%	5.77%	21.26%
CCc1noc(-c2ncn3c2[C@@H](C)N=C(c2ccccc2F)c2cc(Cl)ccc2-3)n1 [Compound 36, (R)-5-(8-Chloro-6-(2′-fluorophenyl)-4-methyl-4H-benzo[f]imidazo[1,5-a][1,4]diazepin-3-yl)-3-ethyl-1,2,4-oxadiazole]	104 ± 7.58 nM	96.4 ± 3%	96.4%	13.9%	10.8%	-14.7%	3.16%	7.7%	-3.62%	-24.14%	42.86%	6.01%	-13.86%

From paper PMC10303271, “Synthesis and Receptor Binding Studies of α5 GABAAR Selective Novel Imidazodiazepines Targeted for Psychiatric and Cognitive Disorders” (Molecules, 2023)
